Reference: US20260265216A1, “NOVEL THIOREDOXIN REDUCTASE INHIBITORS” (GENEXPLAIN GMBH, priority 2021, published 2026)

Molecular target: T1, TrxR1 in HCT116 and MCF7 cells (Homo sapiens, UniProt Q16881)
T1 construct: endogenous in cells; host or cells: MCF7; HCT116
T1 sequence (Q16881 1-499 isoform Q16881-5): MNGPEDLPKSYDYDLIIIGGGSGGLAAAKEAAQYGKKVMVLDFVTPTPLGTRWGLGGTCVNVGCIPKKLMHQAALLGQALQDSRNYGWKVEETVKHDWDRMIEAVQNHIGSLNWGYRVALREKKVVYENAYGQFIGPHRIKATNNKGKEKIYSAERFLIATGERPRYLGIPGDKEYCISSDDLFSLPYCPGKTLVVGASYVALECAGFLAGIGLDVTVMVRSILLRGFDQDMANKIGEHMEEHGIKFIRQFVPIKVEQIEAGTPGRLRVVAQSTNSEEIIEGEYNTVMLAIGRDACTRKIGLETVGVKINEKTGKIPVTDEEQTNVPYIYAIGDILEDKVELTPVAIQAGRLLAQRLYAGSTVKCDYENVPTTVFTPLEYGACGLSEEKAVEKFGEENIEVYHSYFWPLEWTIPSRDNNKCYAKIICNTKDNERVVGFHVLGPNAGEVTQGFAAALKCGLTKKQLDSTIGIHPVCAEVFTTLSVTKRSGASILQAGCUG
Assay: Detection of TrxR dimers by Western blot
Type: cell-based
Conditions: 5 μM, detected as soon as 2 h
Procedure: The extraction of total cell lysates and western blot were performed according to standard procedure. The antibodies used for immunoblotting were: p53 (sc-126, Santa Cruz Biotechnology), γH2AX (#07-164, Millipore), TrxR1 19A1 (AbFrontier). Anti-β-actin monoclonal antibody (Millipore) was used as loading control. The horseradish peroxidase-coupled secondary antibodies (Jackson ImmunoResearch) and SuperSignal™ West Dura Extended Duration Substrate detection system (Thermo Fischer Scientific), and images were visualized using ChemiDoc Imaging System (Bio-Rad).
MCF7 or HCT116 cells were treated in culture with 5 or 10 μM of 1d*HCl (Example 4) in complete medium for 2 h or 6 h. For each case, duplicate drug treated samples were produced plus duplicate control treatment samples using equal volumes of the drug vehicle dimethyl sulfoxide. Detached cells from each biological replicate were washed, suspended in PBS containing protease inhibitors and cells lysed through freeze thaw cycles in liquid N2, according to the reference protocol. Soluble fraction was separated from precipitated protein by ultracentrifugation at 100000 g for 30 minutes at 4° C. and TrxR1 dimer formation was analysed using Western blot as described above. […]

Cl.N#Cc1c(-c2cccnc2)[n+]([O-])c2cc(F)c(N3CCOCC3)cc2[n+]1[O-] [Compound 1d*HCl, 6-Fluoro-7-(morpholin-4-yl)-3-(pyridin-3-yl)quinoxaline-2-carbonitrile-1,4-dioxide hydrochloride]
formation of TrxR1 covalent dimers (130 kDa band): induces the formation of TrxR1 covalent dimers
